Assay results taken from the NIST ThermoML archive (doi:10.1021/acs.jced.5b00503).
± gives the expanded uncertainty stated by the source.

Tests used:
[1] = 101 kPa, Liquid, Falling or rolling sphere viscometry
[2] = xn = mol fraction of the nth substance listed; settings: 101 kPa, Liquid, Falling or rolling sphere viscometry

CCCCCC[n+]1ccn(C)c1.O=S(=O)([N-]S(=O)(=O)C(F)(F)F)C(F)(F)F
[1]
Settings | viscosity [mPa·s]
288.2 K | 117.8 ± 5.8
298.2 K | 70.4 ± 3
308.2 K | 45.4 ± 1.9
318.2 K | 31.23 ± 1.3

CCCCCC[n+]1ccn(C)c1.O=S(=O)([N-]S(=O)(=O)C(F)(F)F)C(F)(F)F + ClC(Cl)Cl
viscosity [mPa·s], [2]
Settings | 288.2 K | 298.2 K | 308.2 K | 318.2 K
x1 = 0.074 | 1.701 ± 0.1 | 1.462 ± 0.089 | 1.265 ± 0.077 | 1.104 ± 0.067
x1 = 0.186 | 4.556 ± 0.28 | 3.667 ± 0.22 | 3.002 ± 0.18 | 2.5 ± 0.15
x1 = 0.266 | 8.57 ± 0.37 | 6.63 ± 0.28 | 5.25 ± 0.22 | 4.29 ± 0.18
x1 = 0.418 | 20.36 ± 0.86 | 14.63 ± 0.62 | 10.96 ± 0.46 | 8.5 ± 0.36
x1 = 0.511 | 30.16 ± 1.3 | 20.92 ± 0.89 | 15.19 ± 0.64 | 11.49 ± 0.48
x1 = 0.565 | 38 ± 1.6 | 25.55 ± 1.1 | 18.18 ± 0.77 | 13.58 ± 0.57
x1 = 0.651 | 50.6 ± 2.1 | 33.3 ± 1.4 | 23.1 ± 1 | 16.97 ± 0.72
x1 = 0.707 | 60.6 ± 2.6 | 38.9 ± 1.7 | 26.6 ± 1.1 | 19.16 ± 0.81
x1 = 0.805 | 78.4 ± 3.5 | 49.6 ± 2.1 | 33.7 ± 1.4 | 24 ± 1
x1 = 0.906 | 95.7 ± 4.5 | 59.1 ± 2.5 | 39.5 ± 1.7 | 27.7 ± 1.2
x1 = 1 | 117.8 ± 5.8 | 70.4 ± 3 | 45.4 ± 1.9 | 31.23 ± 1.3
